From ChEMBL document CHEMBL3763064, “Discovery of silyl proline containing HCV NS5A inhibitors with pan-genotype activity: SAR development” (Bioorg Med Chem Lett, 2016)

What was measured:
[1] = system: Hepatitis C virus; assay: Antiviral activity against HCV genotype 1b by replicon assay; assay type: functional, organism-based, Hepacivirus hominis
[2] = system: Hepatitis C virus; assay: Antiviral activity against HCV genotype 3a by replicon assay; assay type: functional, organism-based, Hepacivirus hominis
[3] = system: Hepatitis C virus; assay: Antiviral activity against HCV genotype 2a by replicon assay; assay type: functional, organism-based, Hepacivirus hominis
[4] = system: Hepatitis C virus; assay: Antiviral activity against HCV genotype 1a by replicon assay; assay type: functional, organism-based, Hepacivirus hominis; details: subtype 1a
[5] = system: Hepatitis C virus; assay: Antiviral activity against HCV genotype 1a expressing NS5A Y93H mutant by replicon assay; assay type: functional, organism-based, Hepacivirus hominis; details: subtype 1a
[6] = Half life in iv dosed Sprague-Dawley rat; assay type: ADME, organism-based; details: in vivo
[7] = system: Rattus norvegicus; assay: AUC in Sprague-Dawley rat at 5 mg/kg, po; assay type: ADME, organism-based; details: in vivo

Structure (SMILES)	EC50 [1] [nM]	EC50 [2] [nM]	EC50 [3] [nM]	EC50 [4] [nM]	EC50 [5] [nM]	half-life [6] [h]	AUC [7] [uM.hr/ml]
COC(=O)N[C@H](C(=O)N1C[Si](C)(C)C[C@H]1c1ncc(-c2ccc(-c3ccc4c(ccc5nc([C@@H]6CCCN6C(=O)[C@@H](NC(=O)OC)C(C)C)[nH]c54)c3)cc2)[nH]1)C(C)C	0.003	0.05	0.02	0.014	95		
COC(=O)N[C@H](C(=O)N1C[Si](C)(C)C[C@H]1c1ncc(-c2ccc(-c3ccc4nc([C@@H]5CCCN5C(=O)[C@@H](NC(=O)OC)C(C)C)[nH]c4c3)cc2)[nH]1)C(C)C	0.004			> 1	9920		
COC(=O)N[C@H](C(=O)N1C[Si](C)(C)C[C@H]1c1nc2ccc3cc(-c4ccc(-c5cnc([C@@H]6CCCN6C(=O)[C@@H](NC(=O)OC)C6CC6)[nH]5)cc4)ccc3c2[nH]1)C(C)C				0.08	260		
COC(=O)N[C@H](C(=O)N1CCC(F)(F)C[C@H]1c1ncc(-c2ccc(-c3ccc4c(ccc5nc([C@@H]6C[Si](C)(C)CN6C(=O)[C@@H](NC(=O)OC)C(C)C)[nH]c54)c3)cc2)[nH]1)C(C)C				0.1	728		
COC(=O)N[C@H](C(=O)N1C[Si](C)(C)C[C@H]1c1ncc(-c2ccc(-c3ccc4c(ccc5nc([C@@H]6CCCN6C(=O)[C@@H](NC(=O)OC)C(C)C)[nH]c54)c3)nc2)[nH]1)C(C)C	0.014			0.04	185		
CCC(C)[C@H](NC(=O)OC)C(=O)N1C[Si](C)(C)C[C@H]1c1nc2ccc3cc(-c4ccc(-c5cnc([C@@H]6CCCN6C(=O)[C@@H](NC(=O)OC)C(C)C)[nH]5)cc4)ccc3c2[nH]1 (stereo not given in full)				0.08	279		
COC(=O)N[C@H](C(=O)N1C[Si](C)(C)C[C@H]1c1nc2ccc3cc(-c4ccc(-c5cnc([C@@H]6[C@@H]7C[C@@H](C(F)C7F)N6C(=O)[C@@H](NC(=O)OC)C(C)C)[nH]5)cc4)ccc3c2[nH]1)C(C)C (stereo not given in full)	0.002			0.04	204		
COC(=O)N[C@H](C(=O)N1C[Si](C)(C)C[C@H]1c1ncc(-c2ccc(-c3cc4c(ccc5nc([C@@H]6CCCN6C(=O)[C@@H](NC(=O)OC)C(C)C)[nH]c54)s3)cc2)[nH]1)C(C)C	0.006			> 1	2330		
COC(=O)N[C@H](C(=O)N1C[Si](C)(C)C[C@H]1c1nc2ccc3cc(-c4ccc(-c5cnc([C@@H]6[C@H]7CC[C@H](C7)N6C(=O)[C@@H](NC(=O)OC)C(C)C)[nH]5)cc4)ccc3c2[nH]1)C(C)C	0.01			0.09	131		
COC(=O)N[C@H](C(=O)N1C[Si](C)(C)C[C@H]1c1ncc(-c2ccc(-c3ccc4c(ccc5nc([C@@H]6CCCN6C(=O)[C@@H](NC(=O)OC)C(C)C)[nH]c54)c3)cc2C2CC2)[nH]1)C(C)C				0.43	1600		
COC(=O)N[C@H](C(=O)N1C[Si](C)(C)C[C@H]1c1ncc(-c2ccc(-c3ccc4c(ccc5nc([C@@H]6CCCN6C(=O)[C@@H](NC(=O)OC)C(C)C)[nH]c54)c3)cc2-c2cccs2)[nH]1)C(C)C				0.5	1150		
COC(=O)N[C@H](C(=O)N1C[Si](C)(C)C[C@H]1c1ncc(-c2ccc(-c3ccc4c(ccc5nc([C@@H]6C[C@@H](F)CN6C(=O)[C@@H](NC(=O)OC)C(C)C)[nH]c54)c3)cc2)[nH]1)C(C)C	0.003			0.02	10		
CCC(C)[C@H](NC(=O)OC)C(=O)N1CCC[C@H]1c1ncc(-c2ccc(-c3ccc4c(ccc5nc([C@@H]6C[Si](C)(C)CN6C(=O)[C@@H](NC(=O)OC)C(C)C)[nH]c54)c3)cc2)[nH]1 (stereo not given in full)				0.15	640		
COC(=O)N[C@H](C(=O)N1CCS(=O)(=O)C[C@H]1c1ncc(-c2ccc(-c3ccc4c(ccc5nc([C@@H]6C[Si](C)(C)CN6C(=O)[C@@H](NC(=O)OC)C(C)C)[nH]c54)c3)cc2)[nH]1)C(C)C	0.01			0.2	380		
COC(=O)N[C@H](C(=O)N1C[Si](C)(C)C[C@H]1c1nc2ccc3cc(-c4ccc(-c5cnc([C@@H]6CCCN6C(=O)[C@@H](NC(=O)OC)C6CCCC6)[nH]5)cc4)ccc3c2[nH]1)C(C)C				0.2	590		
COC(=O)N[C@H](C(=O)N1CCC[C@H]1c1ncc(-c2ccc(-c3ccc4c(ccc5nc([C@@H]6C[Si](C)(C)CN6C(=O)[C@@H](NC(=O)OC)C(C)OC)[nH]c54)c3)cc2)[nH]1)C(C)C (stereo not given in full)				0.03	275		
COC(=O)N[C@H](C(=O)N1C[Si](C)(C)C[C@H]1c1ncc(-c2ccc(-c3ccc4c(ccc5nc([C@@H]6CCCN6C(=O)[C@@H](NC(=O)OC)C(C)C)[nH]c54)c3)cc2OC)[nH]1)C(C)C				0.27	497		
COC(=O)N[C@H](C(=O)N1CC(C)(C)C[C@H]1c1ncc(-c2ccc(-c3ccc4c(ccc5nc([C@@H]6C[Si](C)(C)CN6C(=O)[C@@H](NC(=O)OC)C(C)C)[nH]c54)c3)cc2)[nH]1)C(C)C	0.003			0.015	90		

Structure (SMILES)	EC50 [1] [nM]	EC50 [2] [nM]	EC50 [3] [nM]	EC50 [4] [nM]	EC50 [5] [nM]	half-life [6] [h]	AUC [7] [uM.hr/ml]
COC(=O)N[C@H](C(=O)N1C[Si](C)(C)C[C@H]1c1nc2ccc3cc(-c4ccc(-c5cnc([C@@H]6CCCN6C(=O)[C@@H](NC(=O)OC)C(C)OC)[nH]5)cc4)ccc3c2[nH]1)C(C)C (stereo not given in full)				0.07	225		
COC(=O)N[C@H](C(=O)N1CCC[C@H]1c1ncc(-c2ccc(-c3ccc4c(ccc5nc([C@@H]6C[Si](C)(C)CN6C(=O)[C@@H](NC(=O)OC)C6CCCC6)[nH]c54)c3)cc2)[nH]1)C(C)C				0.09	471		
COC(=O)N[C@H](C(=O)N1C[C@H](O)C[C@H]1c1ncc(-c2ccc(-c3ccc4c(ccc5nc([C@@H]6C[Si](C)(C)CN6C(=O)[C@@H](NC(=O)OC)C(C)C)[nH]c54)c3)cc2)[nH]1)C(C)C	0.005			0.06	44		
COC(=O)N[C@H](C(=O)N1CCC[C@H]1c1ncc(-c2ccc(-c3ccc(-c4cnc([C@@H]5C[Si](C)(C)CN5C(=O)[C@@H](NC(=O)OC)C(C)C)[nH]4)cc3)cc2)[nH]1)C(C)C	0.003	0.5	0.04	0.04	92		
COC(=O)N[C@H](C(=O)N1CCC[C@H]1c1ncc(-c2ccc(-c3ccc4c(ccc5nc([C@@H]6C[Si](C)(C)CN6C(=O)[C@@H](NC(=O)OC)C(C)C)[nH]c54)c3)cc2)[nH]1)C(C)C	0.004	0.26	0.004	0.003	35	6.6	3.2
COC(=O)N[C@H](C(=O)N1C[C@H](F)C[C@H]1c1ncc(-c2ccc(-c3ccc4c(ccc5nc([C@@H]6C[Si](C)(C)CN6C(=O)[C@@H](NC(=O)OC)C(C)C)[nH]c54)c3)cc2)[nH]1)C(C)C	0.006			0.07	27		
COC(=O)N[C@H](C(=O)N1CCC[C@H]1c1ncc(-c2ccc(-c3ccc4c(ccc5nc([C@@H]6C[Si](C)(C)CN6C(=O)[C@@H](NC(=O)OC)C6CC6)[nH]c54)c3)cc2)[nH]1)C(C)C				0.05	87		
COC(=O)N[C@H](C(=O)N1C[Si](C)(C)C[C@H]1c1nc2ccc3cc(-c4ccc(-c5cnc([C@@H]6C[C@H]7C[C@H]7N6C(=O)[C@@H](NC(=O)OC)C(C)C)[nH]5)cc4)ccc3c2[nH]1)C(C)C					30		
COC(=O)N[C@H](C(=O)N1C[Si]2(CCCC2)C[C@H]1c1ncc(-c2ccc(-c3ccc4c(ccc5nc([C@@H]6CCCN6C(=O)[C@@H](NC(=O)OC)C(C)C)[nH]c54)c3)cc2)[nH]1)C(C)C		0.2	0.01	0.06	350		
COC(=O)N[C@H](C(=O)N1CCC[C@H]1c1ncc(-c2ccc(-c3ccc4c(ccc5nc([C@@H]6C[Si](C)(C)CN6C(=O)[C@@H](NC(=O)OC)C(C)O)[nH]c54)c3)cc2)[nH]1)C(C)C (stereo not given in full)				0.6	> 1000		
COC(=O)N[C@H](C(=O)N1CCC[C@H]1c1ncc(-c2ccc(-c3ccc(-c4cnc([C@@H]5CCCN5C(=O)[C@@H](NC(=O)OC)C(C)C)[nH]4)cc3)cc2)[nH]1)C(C)C	0.01	0.7	0.04		198		
COC(=O)N[C@H](C(=O)N1CCC[C@H]1c1ncc(-c2ccc(-c3cc4cc(-c5cnc([C@@H]6C[Si](C)(C)CN6C(=O)[C@@H](NC(=O)OC)C(C)C)[nH]5)ccc4o3)cc2)[nH]1)C(C)C	0.003	15	2.4	0.04	153		
COC(=O)N[C@H](C(=O)N1C[Si](C)(C)C[C@H]1c1ncc(-c2ccc(-c3ccc4c(ccc5nc([C@@H]6CCCN6C(=O)[C@@H](NC(=O)OC)C(C)C)[nH]c54)c3)cc2F)[nH]1)C(C)C				0.05	329		
COC(=O)N[C@H](C(=O)N1C[Si](C)(C)C[C@H]1c1ncc(-c2ccc(-c3ccc(-c4cnc([C@@H]5C[Si](C)(C)CN5C(=O)[C@@H](NC(=O)OC)C(C)C)[nH]4)cc3)cc2)[nH]1)C(C)C	0.01	4.1	0.25	0.2	> 1000		
COC(=O)N[C@H](C(=O)N1C[Si](C)(C)C[C@H]1c1nc2ccc3cc(-c4ccc(-c5cnc([C@@H]6CCCN6C(=O)[C@@H](NC(=O)OC)C(C)O)[nH]5)cc4)ccc3c2[nH]1)C(C)C (stereo not given in full)				0.14	579		
COC(=O)N[C@H](C(=O)N1C[Si](C)(C)C[C@H]1c1ncc(-c2ccc(-c3ccc4c(ccc5nc([C@@H]6CCCN6C(=O)[C@@H](NC(=O)OC)C(C)C)[nH]c54)c3)s2)[nH]1)C(C)C	0.004			0.14	921		
COC(=O)N[C@H](C(=O)N1CC(F)(F)C[C@H]1c1ncc(-c2ccc(-c3ccc4c(ccc5nc([C@@H]6C[Si](C)(C)CN6C(=O)[C@@H](NC(=O)OC)C(C)C)[nH]c54)c3)cc2)[nH]1)C(C)C				0.015	46		5
COC(=O)N[C@H](C(=O)N1C[Si](C)(C)C[C@H]1c1ncc(-c2ccc(-c3ccc4c(ccc5nc([C@@H]6CC(F)(F)CN6C(=O)[C@@H](NC(=O)OC)C(C)C)[nH]c54)c3)cc2)[nH]1)C(C)C					65	6.7	7.6
